# Data as given in ChEMBL document CHEMBL1130756, “Synthesis and cytotoxic activity of novel 10-alkylated docetaxel analogs” (1998).
# Experiments:
# [1] = system: PC-6; assay: Concentration required to inhibit the growth of human lung cancer (PC-6)cell lines by 50% on 72 hr continuous exposure; format: functional; settings: PC-6, 72 h
# [2] = system: P388; assay: Concentration required to inhibit the growth of mouse leukemia (P388) cell lines by 50% on 72 h continuous exposure; format: functional; settings: P388, 72 h
Compound,GI50 [2] [ng/mL],GI50 [1] [ng/mL]
CC(=O)O[C@@]12COC1C[C@H](O)[C@@]1(C)C(=O)[C@H](CCC(=O)O)C3=C(C)[C@@H](OC(=O)[C@H](O)[C@@H](NC(=O)OC(C)(C)C)c4ccccc4)C[C@@](O)([C@@H](OC(=O)c4ccccc4)[C@@H]12)C3(C)C (stereo partly drawn),1870,934
CCOC(=O)CC[C@H]1C(=O)[C@]2(C)[C@@H](O)CC3OC[C@@]3(OC(C)=O)[C@H]2[C@H](OC(=O)c2ccccc2)[C@]2(O)C[C@H](OC(=O)[C@H](O)[C@@H](NC(=O)OC(C)(C)C)c3ccccc3)C(C)=C1C2(C)C (stereo partly drawn),4.31,1.35
CC(=O)O[C@@]12COC1C[C@H](O)[C@@]1(C)C(=O)[C@H](CCC#N)C3=C(C)[C@@H](OC(=O)[C@H](O)[C@@H](NC(=O)OC(C)(C)C)c4ccccc4)C[C@@](O)([C@@H](OC(=O)c4ccccc4)[C@@H]12)C3(C)C (stereo partly drawn),18.4,0.681
COC(=O)CC[C@H]1C(=O)[C@]2(C)[C@@H](O)CC3OC[C@@]3(OC(C)=O)[C@H]2[C@H](OC(=O)c2ccccc2)[C@]2(O)C[C@H](OC(=O)[C@H](O)[C@@H](NC(=O)OC(C)(C)C)c3ccccc3)C(C)=C1C2(C)C (stereo partly drawn),3.3,0.771
CC(=O)CC[C@H]1C(=O)[C@]2(C)[C@@H](O)CC3OC[C@@]3(OC(C)=O)[C@H]2[C@H](OC(=O)c2ccccc2)[C@]2(O)C[C@H](OC(=O)[C@H](O)[C@@H](NC(=O)OC(C)(C)C)c3ccccc3)C(C)=C1C2(C)C (stereo partly drawn),7.12,0.266

# Further lines, with some results ahead:
GI50 [2] [ng/mL],Compound,GI50 [1] [ng/mL]
1520,CC(=O)O[C@@]12COC1C[C@H](O)[C@@]1(C)C(=O)[C@H](CCCN)C3=C(C)[C@@H](OC(=O)[C@H](O)[C@@H](NC(=O)OC(C)(C)C)c4ccccc4)C[C@@](O)([C@@H](OC(=O)c4ccccc4)[C@@H]12)C3(C)C (stereo partly drawn),236
71.8,CC(=O)NCCC[C@H]1C(=O)[C@]2(C)[C@@H](O)CC3OC[C@@]3(OC(C)=O)[C@H]2[C@H](OC(=O)c2ccccc2)[C@]2(O)C[C@H](OC(=O)[C@H](O)[C@@H](NC(=O)OC(C)(C)C)c3ccccc3)C(C)=C1C2(C)C (stereo partly drawn),10.5
15.5,CC(=O)O[C@@]12COC1C[C@H](O)[C@@]1(C)C(=O)[C@H](CCCO)C3=C(C)[C@@H](OC(=O)[C@H](O)[C@@H](NC(=O)OC(C)(C)C)c4ccccc4)C[C@@](O)([C@@H](OC(=O)c4ccccc4)[C@@H]12)C3(C)C (stereo partly drawn),0.777
6.74,CC(=O)O[C@@]12CO[C@@H]1C[C@H](O)[C@@]1(C)C(=O)[C@H](O)C3=C(C)[C@@H](OC(=O)[C@H](O)[C@@H](NC(=O)OC(C)(C)C)c4ccccc4)C[C@@](O)([C@@H](OC(=O)c4ccccc4)[C@H]21)C3(C)C.O.O.O [DOCETAXEL],1.13
